Values of other authors, collected in patent US9724355B2, “Fulvestrant compositions and methods of use” (SHIMODA BIOTECH (PTY) LTD, priority 2010, dated 2017).

conditions: cited from earlier work

| Compound | Water Solubility (25° C.) [mg/mL] |
| --- | --- |
| Sulfobutylether beta-cyclodextrin | >500 |
| CC(O)COC[C@H]1O[C@@H]2O[C@H]3[C@H](O)[C@@H](O)[C@@H](O[C@H]4[C@H](O)[C@@H](O)[C@@H](O[C@H]5[C@H](O)[C@@H](O)[C@@H](O[C@H]6[C@H](O)[C@@H](O)[C@@H](O[C@H]7[C@H](O)[C@@H](O)[C@@H](O[C@H]8[C@H](O)[C@@H](O)[C@@H](O[C@H]1[C@H](O)[C@H]2O)O[C@@H]8COCC(C)O)O[C@@H]7COCC(C)O)O[C@@H]6COCC(C)O)O[C@@H]5COCC(C)O)O[C@@H]4COCC(C)O)O[C@@H]3COCC(C)O (stereo partly drawn) [Hydroxypropyl beta-cyclodextrin] | >750 |
| Methyl beta-cyclodextrin | >750 |
